Columns and labels:
[1] = test system: B-Raf(V600E)-Ba/F3 cell line; assay: B-Raf(V600E)-Ba/F3 proliferation assay (Cell-Titer-Glo); assay type: cell-based; settings: 384-well, called historical data, SD in parentheses (n=4-6)
Description: The B-Raf(V600E)-Ba/F3 cell line was generously provided by Markus Warmuth (GNF). Ba/F3 cells were counted and diluted to a final concentration of 75,000 cells/ml in RPMI media and 50μl/well were plated into 384-well white solid bottom plates. 50nl of a 10mM compound stock in DMSO were pintool transferred followed by a 48h incubation time at 37°C for 48h. Finally, 25μl Cell-Titer-Glo (Promega) detection reagent was added each and luminescence read were taken on a […] (Molecular Devices Corp.) reader.

[2] = target: T1, B-Raf(V600E) (Homo sapiens, UniProt P15056, V600E); assay: B-Raf(V600E)/MEK1(KD) cellular TR-FRET assay (double stable HEK293 T-Rex cells); assay type: cell-based; settings: for IC50: B-Raf(V600E) TR-FRET, kinase-inactive MEK(KD) substrate, 384-well, ~2h compound treatment, SD in parentheses (n=4-6)
T1 construct: Full-length B-Raf wild-type (WT) and B-Raf(V600E) (NM_004333) cDNAs were subcloned from pcDNA3.1 into pcDNA5TO; expressed in transfected cells

[3] = target: T2, AKT (Homo sapiens, UniProt P31749); assay: AKT/cSTKpep-3 cellular TR-FRET assay (transient, HEK293); assay type: cell-based; settings: Fig. 7C; comparable potencies in both assays
T2 construct: expressed in transfected cells; host or cells: HEK293 (transient co-transfection)

[4] = test system: AKT activation (Ser473 phosphorylation); assay: p-AKT(Ser473) cellular TR-FRET assay with His-tagged AKT (HEK293); assay type: cell-based, human; settings: for observed potency (concentration range), AKT phosphorylation assay: Fig. 7B, comparable potencies in both assays
[5] = target: T1, B-Raf(V600E); assay: B-Raf(V600E)/cSTKpep-3 cellular TR-FRET assay (double stable HEK293 T-Rex cells); assay type: cell-based; settings: cSTKpep-3 substrate, ~2h compound treatment, SD in parentheses (n=4-6); for IC50: 384-well
[6] = target: T1, B-Raf(V600E); assay: B-Raf(V600E)/MEK1(WT) cellular TR-FRET assay (double stable HEK293 T-Rex cells); assay type: cell-based; settings: MEK(WT) substrate, ~2h compound treatment, SD in parentheses (n=4-6); for IC50: 384-well
[7] = test system: CamK2δ; assay: CamK2δ/cSTKpep-1 cellular TR-FRET assay (transient, HEK 293); assay type: cell-based; settings: 5min ionomycin treatment (1µM)
Description: HEK293 cells were transfected using Fugene 6 (Roche) at a density of 8000 cells/well in 384-well plates and a final transfection volume of 30μl. The amounts of kinase and substrate plasmids per well varied for each experiment and are specified in the figure legends. Cell lysis and detection of phosphorylated or total substrate levels was performed 48h post transfection by addition of 30μl detection buffer (50 mM Hepes pH 7.2, 0.1% BSA, 20mM EDTA, 0.8M KF, and 2% Triton) containing anti-FLAG XL665 (2ng/ul) and Eu-pSTK (0.18ng/μl) or Eu-pMEK1 (0.24ng/μl). For the relative determination of total substrate levels 30μl detection buffer was added per well containing anti-FLAG XL665 (2ng/μl) and Eu-cMyc (0.3ng/μl). Plates were incubated for 3-6h at room temperature and TR-FRET readings taken on Acquest, Analyst GT (Molecular Devices Corp.), Envision or Viewlux (Perkin Elmer) plate readers. […]
Fig. (8). Induction of CamK2δ activity. Transient transfection reactions were performed in 384-well plates as indicated. HEK 293 were reverse transfected with 50ng CamK2δ and 50ng (black bars) or 25ng (gray bars) cSTKpep-1. CamK2δ activity was induced through 5min ionomycin treatment (1µM) and p-cSTKpep-1 was quantified by TR-FRET.

T1 sequence (P15056 whole entry V600E): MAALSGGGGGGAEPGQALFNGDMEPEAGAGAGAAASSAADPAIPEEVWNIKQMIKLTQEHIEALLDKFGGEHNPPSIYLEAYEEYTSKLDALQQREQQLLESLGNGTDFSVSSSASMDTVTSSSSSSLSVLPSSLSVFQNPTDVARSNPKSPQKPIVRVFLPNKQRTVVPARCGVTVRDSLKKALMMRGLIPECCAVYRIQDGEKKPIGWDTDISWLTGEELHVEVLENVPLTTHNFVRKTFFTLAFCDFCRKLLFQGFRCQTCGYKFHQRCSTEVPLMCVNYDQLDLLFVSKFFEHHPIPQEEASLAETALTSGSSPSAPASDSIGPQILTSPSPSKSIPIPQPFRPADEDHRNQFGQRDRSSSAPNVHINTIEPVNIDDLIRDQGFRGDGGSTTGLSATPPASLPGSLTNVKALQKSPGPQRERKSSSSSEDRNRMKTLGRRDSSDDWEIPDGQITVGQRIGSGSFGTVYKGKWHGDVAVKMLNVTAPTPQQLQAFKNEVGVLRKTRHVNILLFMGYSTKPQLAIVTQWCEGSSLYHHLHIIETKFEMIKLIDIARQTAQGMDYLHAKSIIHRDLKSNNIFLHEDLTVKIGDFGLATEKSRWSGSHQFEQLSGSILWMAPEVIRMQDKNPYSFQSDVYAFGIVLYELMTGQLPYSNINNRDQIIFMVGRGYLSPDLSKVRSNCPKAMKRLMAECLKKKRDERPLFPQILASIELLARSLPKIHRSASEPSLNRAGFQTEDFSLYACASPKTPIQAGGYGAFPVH
T2 sequence (P31749 whole entry): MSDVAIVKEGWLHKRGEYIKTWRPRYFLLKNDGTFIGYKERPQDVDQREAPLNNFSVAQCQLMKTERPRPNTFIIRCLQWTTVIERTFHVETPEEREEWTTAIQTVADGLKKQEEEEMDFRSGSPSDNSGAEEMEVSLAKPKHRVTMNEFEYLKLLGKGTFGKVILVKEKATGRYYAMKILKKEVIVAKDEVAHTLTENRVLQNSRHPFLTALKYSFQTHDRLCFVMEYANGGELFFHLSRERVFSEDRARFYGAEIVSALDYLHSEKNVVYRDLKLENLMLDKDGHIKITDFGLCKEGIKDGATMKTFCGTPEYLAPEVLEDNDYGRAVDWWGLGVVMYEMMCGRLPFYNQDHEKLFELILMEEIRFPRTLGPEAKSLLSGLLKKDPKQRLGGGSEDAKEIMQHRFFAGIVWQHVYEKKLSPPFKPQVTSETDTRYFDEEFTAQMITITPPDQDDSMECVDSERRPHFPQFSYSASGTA

Structure (SMILES)	IC50 [2] [µM]	observed potency (concentration range), cSTKpep-3 phosphorylation assay [3]	observed potency (concentration range), AKT phosphorylation assay [4]	IC50 [5] [µM]	IC50 cSTKpep-3 384-well [5]	IC50 [6] [µM]	IC50 MEK(WT) 384-well [6]	also measured
O=c1cc(N2CCOCC2)oc2c(-c3ccccc3)cccc12 [LY294002, 2-(4-morpholinyl)-8-phenyl-4H-1-benzopyran-4-one]	> 33	low micromolar	low micromolar	> 33	did not show any activity	> 33	did not show any activity	–
O=C(NOC[C@H](O)CO)c1ccc(F)c(F)c1Nc1ccc(I)cc1F [PD0325901]	–	–	–	–	–	–	–	IC50 MEK(KD) 384-well [2]: inactive; IC50 ([1]; Mus musculus, BaF3, 48h): […]
CN[C@@H]1C[C@H]2O[C@@](C)([C@@H]1OC)n1c3ccccc3c3c4c(c5c6ccccc6n2c5c31)C(=O)NC4 [Staurosporine]	–	–	–	–	–	–	–	factor between activity on p-AKT versus p-cSTKpep-3 ([4]; p-AKT IC50 versus p-cSTKpep-3 IC50): ~ 100 fold
COC[C@H]1OC(=O)c2coc3c2[C@@]1(C)C1=C(C3=O)[C@@H]2CCC(=O)[C@@]2(C)C[C@H]1OC(C)=O [Wortmannin]	> 33	low nanomolar	low nanomolar	> 33	did not show any activity	> 33	did not show any activity	–
C[C@H](CCC(=O)O)C[C@H](C)C[C@H](C)C(=O)/C=C(\O)[C@H](C)C[C@H](C)C/C=C/[C@@H](C)[C@@H](O)[C@@H](C)[C@@H](O)C[C@@H]1CC[C@@](C)([C@H]2CC[C@@](C)([C@@H](C)O)O2)O1 [ionomycin]	–	–	–	–	–	–	–	induction of CamK2δ activity / cSTKpep-1 phosphorylation [7]: ionomycin inducible
